Activity data for one compound are collected here from ChEMBL document CHEMBL3879895, “Compositions and methods for treating ocular edema, neovascularization and related diseases” (2014).

This assay relates to Mus musculus. The experiment in a line: Reduction of neovascular tufts in retina of rhodopsin/VEGF transgenic mouse at 3 to 10 mg/kg, sc bid administered for 7 days started on post natal day 14 measured on post natal day 21 by FITC-conjugated GSA-lectin staining-based fluorescence microscopy. Format: functional, organism-based.

Active and inactive are the calls of the source. No cut-off for these calls is given here.

For `COC(=O)N[C@@H](Cc1ccccc1)C(=O)N[C@@H](Cc1ccc(NS(=O)(=O)O)cc1)c1csc(-c2csc(-c3cccs3)n2)n1`, the outcome was Active.
